Source: patent US20250074891A1 (Anaxis Pharma Pty Ltd., priority 2021, published 2025)

Experiments:
Conditions in all cases: Table 35
MLKL (full length) = MLKL (full length) (Homo sapiens (Human), UniProt Q8NB16); assay: KINOMEscan binding assay, MLKL (full length)
Description: (§1) Kinase assays. For most assays, kinase-tagged T7 phage strains were grown in parallel in 24-well blocks in an E. coli host derived from the BL21 strain. E. coli were grown to log-phase and infected with T7 phage from a frozen stock (multiplicity of infection=0.4) and incubated with shaking at 32° C. until lysis (90-150 minutes).
(§2) The Hill Slope was set to −1.

RIP1 = RIP1 (Homo sapiens (Human), UniProt Q13546); assay: KINOMEscan binding assay, RIP1
Chain of RIP1 (Q13546 whole entry): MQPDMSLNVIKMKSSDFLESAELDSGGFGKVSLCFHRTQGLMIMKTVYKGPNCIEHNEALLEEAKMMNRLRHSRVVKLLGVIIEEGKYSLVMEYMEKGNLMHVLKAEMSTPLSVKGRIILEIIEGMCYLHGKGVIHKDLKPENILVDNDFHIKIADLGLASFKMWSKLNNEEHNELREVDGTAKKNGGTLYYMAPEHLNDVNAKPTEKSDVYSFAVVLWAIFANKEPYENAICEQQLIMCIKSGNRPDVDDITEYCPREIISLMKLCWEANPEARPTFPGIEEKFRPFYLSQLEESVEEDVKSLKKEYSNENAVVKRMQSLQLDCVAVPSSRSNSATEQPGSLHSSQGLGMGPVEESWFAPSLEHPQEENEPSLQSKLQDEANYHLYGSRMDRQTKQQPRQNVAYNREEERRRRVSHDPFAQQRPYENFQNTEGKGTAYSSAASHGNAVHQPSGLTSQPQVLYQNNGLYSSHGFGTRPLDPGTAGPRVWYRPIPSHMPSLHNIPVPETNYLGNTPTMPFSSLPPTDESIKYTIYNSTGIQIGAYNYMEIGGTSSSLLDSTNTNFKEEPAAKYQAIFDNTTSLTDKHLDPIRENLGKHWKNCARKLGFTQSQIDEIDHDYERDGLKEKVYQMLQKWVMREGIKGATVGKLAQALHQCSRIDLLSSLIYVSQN

RIP3 = RIP3 (Homo sapiens (Human), UniProt Q9Y572); assay: KINOMEscan binding assay, RIP3
Chain of RIP3 (Q9Y572 whole entry): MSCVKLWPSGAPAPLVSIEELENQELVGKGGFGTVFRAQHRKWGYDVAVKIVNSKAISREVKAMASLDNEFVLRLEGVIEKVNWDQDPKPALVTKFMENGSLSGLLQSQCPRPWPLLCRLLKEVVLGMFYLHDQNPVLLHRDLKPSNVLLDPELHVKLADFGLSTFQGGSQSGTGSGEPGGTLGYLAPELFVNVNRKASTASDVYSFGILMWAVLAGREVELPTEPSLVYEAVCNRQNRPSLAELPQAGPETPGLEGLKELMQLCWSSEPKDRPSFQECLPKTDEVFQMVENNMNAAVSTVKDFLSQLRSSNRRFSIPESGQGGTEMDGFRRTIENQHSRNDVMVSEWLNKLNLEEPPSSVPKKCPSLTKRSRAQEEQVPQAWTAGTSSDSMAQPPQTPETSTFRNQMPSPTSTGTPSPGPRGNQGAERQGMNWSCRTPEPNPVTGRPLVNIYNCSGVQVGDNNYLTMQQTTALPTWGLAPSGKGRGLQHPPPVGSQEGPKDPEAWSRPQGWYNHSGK
Description: as §1, §2

Chain of MLKL (full length) (Q8NB16 whole entry): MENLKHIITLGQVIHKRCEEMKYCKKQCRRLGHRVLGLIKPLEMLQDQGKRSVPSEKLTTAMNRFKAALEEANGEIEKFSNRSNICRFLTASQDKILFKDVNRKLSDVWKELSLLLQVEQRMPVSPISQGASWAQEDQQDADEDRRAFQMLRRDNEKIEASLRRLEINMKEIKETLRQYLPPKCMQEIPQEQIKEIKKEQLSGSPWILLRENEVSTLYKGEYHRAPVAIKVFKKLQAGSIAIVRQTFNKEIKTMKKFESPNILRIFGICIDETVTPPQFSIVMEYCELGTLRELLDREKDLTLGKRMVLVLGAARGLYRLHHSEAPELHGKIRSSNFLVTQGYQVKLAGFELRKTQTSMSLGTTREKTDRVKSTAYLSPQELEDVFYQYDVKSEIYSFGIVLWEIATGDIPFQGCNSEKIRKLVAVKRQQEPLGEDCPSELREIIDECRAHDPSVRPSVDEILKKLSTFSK

Structure (SMILES)	Kd (MLKL (full length)) [µM]	Kd (RIP1) [µM]	Kd (RIP3) [µM]
C[C@H](Oc1cc(-c2n[nH]c(Nc3cc(C4CCOCC4)on3)c2C(N)=O)ccc1NS(=O)(=O)C(F)F)c1ccc(F)cc1 [Compound 303, (S)-3-(4-((difluoromethyl)sulfonamido)-3-(1-(4-fluorophenyl)ethoxy)phenyl)-5-((5-(tetrahydro-2H-pyran-4-yl)isoxazol-3-yl)amino)-1H-pyrazole-4-carboxamide]	< 0.01	> 30	> 30
CCS(=O)(=O)Nc1ccc(-c2n[nH]c(Nc3cnccn3)c2C(N)=O)c(OCc2ccc(Cl)cc2)c1 [Compound 198, 3-(2-((4-chlorobenzyl)oxy)-4-(ethylsulfonamido)phenyl)-5-(pyrazin-2-ylamino)-1H-pyrazole-4-carboxamide]	< 0.01	> 30	> 30
CCS(=O)(=O)Nc1ccc(-c2n[nH]c(Nc3cnccn3)c2C(N)=O)c(OCc2ccc(F)cc2)c1 [Compound 21, 3-(4-(ethylsulfonamido)-2-((4-fluorobenzyl)oxy)phenyl)-5-(pyrazin-2-ylamino)-1H-pyrazole-4-carboxamide]	< 0.01	> 30	> 30
COc1ccc(Nc2[nH]nc(-c3ccc(NS(=O)(=O)CC(F)(F)F)c(OCc4ccc(F)cc4)c3)c2C(N)=O)cn1 [Compound 159, 3-(3-((4-fluorobenzyl)oxy)-4-((2,2,2-trifluoroethyl)sulfonamido)phenyl)-5-((6-methoxypyridin-3-yl)amino)-1H-pyrazole-4-carboxamide]	< 0.01	> 30	> 30
C[C@@H](Oc1cc(-c2n[nH]c(Nc3cnccn3)c2C(N)=O)ccc1NS(=O)(=O)C(F)F)c1ccc(F)cc1 [Compound 271, (R)-3-(4-((difluoro-methyl)sulfon-amido)-3-(1-(4-fluorophenyl)ethoxy)phenyl)-5-(pyrazin-2-ylamino)-1H-pyrazole-4-carboxamide]	< 0.01	> 30	> 30
NC(=O)c1c(-c2ccc(NS(=O)(=O)CC(F)(F)F)c(OCc3ccc(F)cn3)c2)n[nH]c1Nc1ccccn1 [Compound 240, 3-{3-[(5-fluoropyridin-2-yl)methoxy]-4-(2,2,2-trifluoroethanesulfonamido)phenyl}-5-[(pyridin-2-yl)amino]-1H-pyrazole-4-carboxamide]	< 0.01	> 30	> 30
CCS(=O)(=O)Nc1ccc(-c2n[nH]c(Nc3cnc(OC)cn3)c2C(N)=O)cc1 [Compound 90, 3-(4-(ethylsulfonamido)phenyl)-5-((5-methoxypyrazin-2-yl)amino)-1H-pyrazole-4-carboxamide]	< 0.01	> 30	> 30
NC(=O)c1c(-c2ccc(NS(=O)(=O)C(F)F)cc2)n[nH]c1Nc1ccccn1 [Compound 48, 3-(4-((difluoromethyl)sulfonamido)phenyl)-5-(pyridin-2-ylamino)-1H-pyrazole-4-carboxamide]	< 0.01	> 30	> 30
NC(=O)c1c(-c2ccc(NS(=O)(=O)CC(F)F)c(OCc3ccc(F)cc3)c2)n[nH]c1Nc1cccc(C(F)(F)F)n1 [Compound 178, 3-(4-((2,2-difluoroethyl)sulfonamido)-3-((4-fluorobenzyl)oxy)phenyl)-5-((6-(trifluoromethyl)pyridine-2-yl)amino)-1H-pyrazole-4-carboxamide]	< 0.01	> 30	> 30
CCS(=O)(=O)Nc1ccc(-c2n[nH]c(Nc3cnccn3)c2C(N)=O)cc1OCCc1ccc(F)cc1 [Compound 24]	< 0.01	> 30	> 30
CCc1cc(Nc2[nH]nc(-c3ccc(NS(=O)(=O)C(F)F)c(O[C@@H](C)c4ccc(F)cc4)c3)c2C(N)=O)no1 [Compound 274, (S)-3-(4-((difluoromethyl)sulfonamido)-3-(1-(4-fluorophenyl)ethoxy)phenyl)-5-((5-ethylisoxazol-3-yl)amino)-1H-pyrazole-4-carboxamide]	< 0.01	> 30	> 30
NC(=O)c1c(-c2ccc(NS(=O)(=O)CC(F)(F)F)c(Oc3ccc(Cl)cc3)c2)n[nH]c1Nc1cnccn1 [Compound 168, 3-(3-(4-chlorophenoxy)-4-((2,2,2-trifluoroethyl)sulfonamido)phenyl)-5-(pyrazin-2-ylamino)-1H-pyrazole-4-carboxamide]	< 0.01	> 30	> 30
CCS(=O)(=O)Nc1ccc(-c2n[nH]c(Nc3cccc(C(F)(F)F)n3)c2C(N)=O)cc1Oc1ccc(F)cc1 [Compound 149, 3-(4-(ethylsulfonamido)-3-(4-fluorophenoxy)phenyl)-5-((6-(trifluoromethyl)pyridine-2-yl)amino)-1H-pyrazole-4-carboxamide]	< 0.01	> 30	> 30
C[C@H](Oc1cc(-c2n[nH]c(Nc3cc(C(C)(C)F)on3)c2C(N)=O)ccc1NS(=O)(=O)C(F)F)c1ccc(F)cc1 [Compound 297, (S)-3-(4-((difluoromethyl)sulfonamido)-3-(1-(4-fluorophenyl)ethoxy)phenyl)-5-((5-(2-fluoropropan-2-yl)isoxazol-3-yl)amino)-1H-pyrazole-4-carboxamide]	< 0.01	> 30	> 30
CCS(=O)(=O)Nc1ccc(-c2n[nH]c(Nc3cnccn3)c2C(N)=O)cc1OC1CCCc2ccccc21 (stereo not drawn) [Compound 232, 3-[4-ethanesulfonamido-3-(1,2,3,4-tetrahydronaphthalen-1-yloxy)phenyl]-5-[(pyrazin-2-yl)amino]-1H-pyrazole-4-carboxamide]	< 0.01	> 30	> 30
CCS(=O)(=O)Nc1ccc(-c2n[nH]c(Nc3cncc(OC)n3)c2C(N)=O)cc1 [Compound 99, 3-(4-(ethylsulfonamido)phenyl)-5-((6-methoxypyrazin-2-yl)amino)-1H-pyrazole-4-carboxamide]	< 0.01	> 30	> 30

Now from value to molecule:

Kd (MLKL (full length)) [µM]	Kd (RIP1) [µM]	Kd (RIP3) [µM]	Structure (SMILES)
< 0.01	> 30	> 30	CCS(=O)(=O)Nc1ccc(-c2n[nH]c(Nc3ccccn3)c2C(N)=O)cc1OCc1ccccc1 [Compound 20, 3-(3-(benzyloxy)-4-(ethylsulfon-amido)phenyl)-5-(pyridin-2-ylamino)-1H-pyrazole-4-carboxamide]
< 0.01	> 30	> 30	CCS(=O)(=O)Nc1ccc(-c2n[nH]c(Nc3cnccn3)c2C(N)=O)cc1 [Compound 108, 3-(4-(ethylsulfonamido)phenyl)-5-(pyrazin-2-ylamino)-1H-pyrazole-4-carboxamide]
< 0.01	> 30	> 30	NC(=O)c1c(-c2ccc(NS(=O)(=O)Cc3ccc(Cl)cc3)cc2)n[nH]c1Nc1cnccn1 [Compound 70, 3-(4-(((4-chlorophenyl)methyl)sulfonamido)phenyl)-5-(pyrazin-2-ylamino)-1H-pyrazole-4-carboxamide]
< 0.01	> 30	> 30	COc1cnc(Nc2[nH]nc(-c3ccc(NS(=O)(=O)CC(F)(F)F)c(OCc4ccc(Cl)cc4)c3)c2C(N)=O)cn1 [Compound 157, 3-(3-((4-chlorobenzyl)oxy)-4-((2,2,2-trifluoroethyl)sulfonamido)phenyl)-5-((5-methoxypyrazin-2-yl)amino)-1H-pyrazole-4-carboxamide]
< 0.01	> 30	> 30	CCS(=O)(=O)Nc1ccc(-c2n[nH]c(Nc3cnn(C)c3)c2C(N)=O)cc1 [Compound 100, 3-(4-(ethylsulfonamido)phenyl)-5-((1-methyl-1H-pyrazol-4-yl)amino)-1H-pyrazole-4-carboxamide]
< 0.01	> 30	> 30	COCC(Oc1cc(-c2n[nH]c(Nc3cc(C)on3)c2C(N)=O)ccc1NS(=O)(=O)C(F)F)c1ccc(F)cc1 (racemic) [Compound 298, 3-(4-((difluoromethyl)sulfonamido)-3-(1-(4-fluorophenyl)-2-methoxyethoxy)phenyl)-5-((5-methylisoxazol-3-yl)amino)-1H-pyrazole-4-carboxamide]
< 0.01	> 30	> 30	CCS(=O)(=O)Nc1ccc(-c2n[nH]c(Nc3cnc(C(F)(F)F)cn3)c2C(N)=O)cc1 [Compound 75, 3-(4-ethanesulfonamidophenyl)-5-{[5-(trifluoromethyl)pyrazin-2-yl]amino}-1H-pyrazole-4-carboxamide]
< 0.01	> 30	> 30	NC(=O)c1c(-c2ccc(NS(=O)(=O)C(F)F)c(OC3(c4ccc(F)cc4)CC3)c2)n[nH]c1Nc1cnccn1 [Compound 307, 3-(4-((difluoromethyl)sulfonamido)-3-(1-(4-fluorophenyl)cyclopropoxy)phenyl)-5-(pyrazin-2-ylamino)-1H-pyrazole-4-carboxamide]
< 0.01	> 30	> 30	COc1cc(Nc2[nH]nc(-c3ccc(NS(=O)(=O)C(F)F)c(O[C@@H](C)c4ccc(F)cc4)c3)c2C(N)=O)nn1C [Compound 294, (S)-3-(4-((difluoromethyl)sulfonamido)-3-(1-(4-fluorophenyl)ethoxy)phenyl)-5-((5-methoxy-1-methyl-1H-pyrazol-3-yl)amino)-1H-pyrazole-4-carboxamide]
0.01 to 1	> 30	> 30	CCS(=O)(=O)Nc1ccc(-c2n[nH]c(Nc3cc(C(F)(F)F)ccn3)c2C(N)=O)cc1OCc1ccc(F)cc1 [Compound 213]
< 0.01	> 30	> 30	CCS(=O)(=O)Nc1ccc(-c2n[nH]c(Nc3cnccn3)c2C(N)=O)cc1Oc1ccc(Cl)cc1 [Compound 185, 3-(3-(4-chlorophenoxy)-4-(ethylsulfonamido)phenyl)-5-(pyrazin-2-ylamino)-1H-pyrazole-4-carboxamide]
